Assay results: ChEMBL document CHEMBL2401655, “Synthesis and antiprotozoal activity of novel 2-{[2-(1H-imidazol-1-yl)ethyl]sulfanyl}-1H-benzimidazole derivatives” (Bioorg Med Chem Lett, 2013)

Legend:
Assay type in all cases: functional, organism-based
Giardia intestinalis = assay: Antiprotozoal activity against trophozoite stage of Giardia intestinalis IMSS:0981:1 assessed as growth inhibition after 48 hrs by haemocytometric analysis; conditions: Giardia duodenalis, IMSS:0981:1, 48 h
Entamoeba histolytica = assay: Antiprotozoal activity against trophozoite stage of Entamoeba histolytica HM-1:IMSS assessed as growth inhibition after 48 hrs by haemocytometric analysis
Trichomonas vaginalis = assay: Antiprotozoal activity against trophozoite stage of Trichomonas vaginalis GT3 assessed as growth inhibition after 48 hrs by haemocytometric analysis; conditions: GT3, 48 h

SMILES	IC50 (Giardia intestinalis) [nM]	IC50 (Entamoeba histolytica) [nM]	IC50 (Trichomonas vaginalis) [nM]
COC(=O)c1cc2nc(SCCn3ccnc3)n(C)c2cc1Cl	44.2	51.3	92.6
CCOc1cc2nc(SCCn3ccnc3)n(C)c2cc1Cl	20.8	14.8	98
CCOc1cc2c(cc1Cl)nc(SCCn1ccnc1)n2C	35.6	46	69.8
Clc1ccc2[nH]c(SCCn3ccnc3)nc2c1	80.7	73.5	170
Cn1c(SCCn2ccnc2)nc2ccccc21	87.1	77.4	149
COC(=O)c1ccc2nc(SCCn3ccnc3)n(C)c2c1	56.9	52.2	114
CCOc1ccc2nc(SCCn3ccnc3)n(C)c2c1	45.2	40.8	71.7
COC(=O)c1ccc2[nH]c(SCCn3ccnc3)nc2c1	77.7	61.2	111
Cn1c(SCCn2ccnc2)nc2cc(Cl)c(Cl)cc21	68.8	64.2	96.3
CCOc1ccc2c(c1)nc(SCCn1ccnc1)n2C	8.3	29.8	76.1
CCOc1ccc2[nH]c(SCCn3ccnc3)nc2c1	56.6	42.8	71.7
COC(=O)c1ccc2c(c1)nc(SCCn1ccnc1)n2C	61.6	42.7	77.4
COC(=O)c1cc2nc(SCCn3ccnc3)[nH]c2cc1Cl	54.9	57.9	72.7
Cn1c(SCCn2ccnc2)nc2ccc(Cl)cc21	62.6	67.2	128
COC(=O)c1cc2c(cc1Cl)nc(SCCn1ccnc1)n2C	55.6	42.8	86.9
CCOc1cc2nc(SCCn3ccnc3)[nH]c2cc1Cl	46.5	62	99.1
c1ccc2[nH]c(SCCn3ccnc3)nc2c1	117	147	178
Cn1c(SCCn2ccnc2)nc2cc(Cl)ccc21	66.6	66	135
Cc1ncc([N+](=O)[O-])n1CCO [METRONIDAZOLE]	–	380	–
Clc1cc2nc(SCCn3ccnc3)[nH]c2cc1Cl	76.6	59.1	140
